PubChem BioAssay AID330 (DTP/NCI, 2004)
“And” between values parts separate entries of the source, which are not always exact repeats. Identical values can stand only once. Inconclusive results and toxic doses are left out.

Test system: P388 leukemia ip, CD2F1 mice, survival T/C
Experiment: NCI In Vivo Anticancer Drug Screen. Data for tumor model P388 Leukemia (intraperitoneal) in CD2F1 (CDF1) mice
Conditions: endpoint: median survival time, higher = longer survival
Outline: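 Mice carrying the transplanted tumor received test compound or vehicle. Survival was recorded in each group, and the value is the treated-group measurement divided by that of the vehicle-treated control group.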

[1] = dose: 25.0 mg/kg/injection, schedule: Q01DX005 (ip), vehicle: saline with Tween-80
[2] = dose: 50.0 mg/kg/injection, schedule: Q01DX005 (ip), vehicle: saline with Tween-80
[3] = dose: 100.0 mg/kg/injection, schedule: Q01DX005 (ip), vehicle: saline with Tween-80
[4] = dose: 200.0 mg/kg/injection, schedule: Q01DX005 (ip), vehicle: saline with Tween-80
[5] = dose: 100.0 mg/kg/injection, schedule: Q01DX001 (ip), vehicle: saline with Tween-80
[6] = dose: 200.0 mg/kg/injection, schedule: Q01DX001 (ip), vehicle: saline with Tween-80
[7] = dose: 400.0 mg/kg/injection, schedule: Q01DX001 (ip), vehicle: saline with Tween-80
[8] = dose: 12.5 mg/kg/injection, schedule: Q01DX009 (ip), vehicle: Klucel (hydroxypropylcellulose) (HPC)
[9] = dose: 25.0 mg/kg/injection, schedule: Q01DX009 (ip), vehicle: Klucel (hydroxypropylcellulose) (HPC)
[10] = dose: 50.0 mg/kg/injection, schedule: Q01DX009 (ip), vehicle: Klucel (hydroxypropylcellulose) (HPC)
[11] = dose: 6.25 mg/kg/injection, schedule: Q01DX009 (ip), vehicle: saline with Tween-80
[12] = dose: 6.25 mg/kg/injection, schedule: Q01DX009 (ip), vehicle: saline
[13] = dose: 25.0 mg/kg/injection, schedule: Q01DX009 (ip), vehicle: saline with Tween-80
[14] = dose: 100.0 mg/kg/injection, schedule: Q01DX009 (ip), vehicle: saline
[15] = dose: 100.0 mg/kg/injection, schedule: Q01DX009 (ip), vehicle: Klucel (hydroxypropylcellulose) (HPC)
[16] = dose: 50.0 mg/kg/injection, schedule: Q01DX005 (ip), vehicle: saline
[17] = dose: 100.0 mg/kg/injection, schedule: Q01DX005 (ip), vehicle: saline
[18] = dose: 12.5 mg/kg/injection, schedule: Q01DX009 (ip), vehicle: saline with Tween-80
[19] = dose: 50.0 mg/kg/injection, schedule: Q01DX009 (ip), vehicle: saline with Tween-80
[20] = dose: 200.0 mg/kg/injection, schedule: Q01DX009 (ip), vehicle: Klucel (hydroxypropylcellulose) (HPC)

SMILES: COc1ccc(C)cc1NC(=O)Sc1ccc(Cl)cc1
- T/C [1]: 110 % of control and 115 % of control
- T/C (dose: 50.0 mg/kg/injection, schedule: Q01DX005 (ip), vehicle: saline + Tween-80 + alcohol): 117 % of control
- T/C [2]: 120 % of control and 123 % of control
- T/C (dose: 100.0 mg/kg/injection, schedule: Q01DX005 (ip), vehicle: saline + Tween-80 + alcohol): 119 % of control
- T/C [3]: 122 % of control
- T/C [4]: 106 % of control

SMILES: c1ccc(-c2nc(-c3ccccn3)cc3ccccc23)cc1
- T/C [5]: 91 % of control
- T/C [6]: 92 % of control
- T/C [7]: 112 % of control

SMILES: Cc1nsc2[nH]c(=O)n(Nc3ccc(O)cc3)c(=O)c12
- T/C [3]: 174 % of control and 178 % of control
- T/C [4]: 180 % of control

SMILES: [N-]=[N+]=Nc1ccc(Nc2c3ccccc3nc3ccccc23)cc1
- T/C [8]: 112 % of control and 98 % of control
- T/C [9]: 101 % of control and 114 % of control
- T/C [10]: 117 % of control and 122 % of control

SMILES: C(=Nc1ccccc1-c1ccccc1N=Cc1ccccc1)c1ccccc1
- T/C (dose: 1.56 mg/kg/injection, schedule: Q01DX009 (ip), vehicle: saline): 100 % of control and 91 % of control
- T/C (dose: 3.12 mg/kg/injection, schedule: Q01DX009 (ip), vehicle: saline): 91 % of control
- T/C [11]: 104 % of control
- T/C [12]: 88 % of control and 93 % of control
- T/C [13]: 86 % of control
- T/C [14]: 96 % of control
- T/C (dose: 200.0 mg/kg/injection, schedule: Q01DX009 (ip), vehicle: saline): 89 % of control

SMILES: CC1(C)C(=O)OC(n2cc(F)c(=O)[nH]c2=O)C1=O (configuration not stated)
- T/C (dose: 11.25 mg/kg/injection, schedule: Q04DX002 (ip), vehicle: distilled water + Tween-80): 105 % of control
- T/C (dose: 22.5 mg/kg/injection, schedule: Q04DX002 (ip), vehicle: distilled water + Tween-80): 105 % of control
- T/C (dose: 45.0 mg/kg/injection, schedule: Q04DX002 (ip), vehicle: distilled water + Tween-80): 116 % of control
- T/C (dose: 45.0 mg/kg/injection, schedule: Q04DX002 (ip), vehicle: saline with Tween-80): 110 % of control
- T/C (dose: 90.0 mg/kg/injection, schedule: Q04DX002 (ip), vehicle: distilled water + Tween-80): 116 % of control
- T/C (dose: 360.0 mg/kg/injection, schedule: Q04DX002 (ip), vehicle: distilled water + Tween-80): 90 % of control
- T/C (dose: 360.0 mg/kg/injection, schedule: Q04DX002 (ip), vehicle: saline with Tween-80): 160 % of control

SMILES: CCOCC(=O)C1(O)Cc2c(O)c3c(c(O)c2C(O)C1)C(=O)c1c(OC)cccc1C3=O (configuration not stated)
- T/C (dose: 1.56 mg/kg/injection, schedule: Q01DX009 (ip), vehicle: other): 101 % of control
- T/C (dose: 3.13 mg/kg/injection, schedule: Q01DX009 (ip), vehicle: other): 100 % of control
- T/C (dose: 6.25 mg/kg/injection, schedule: Q01DX009 (ip), vehicle: other): 100 % of control
- T/C (dose: 12.5 mg/kg/injection, schedule: Q01DX009 (ip), vehicle: other): 95 % of control
- T/C (dose: 25.0 mg/kg/injection, schedule: Q01DX009 (ip), vehicle: other): 103 % of control

SMILES: NC(=S)c1ccc(N=Cc2cccc([N+](=O)[O-])c2)cc1
- T/C (dose: 100.0 mg/kg/injection, schedule: Q01DX001 (ip), vehicle: Klucel (hydroxypropylcellulose) (HPC)): 98 % of control
- T/C (dose: 200.0 mg/kg/injection, schedule: Q01DX001 (ip), vehicle: Klucel (hydroxypropylcellulose) (HPC)): 124 % of control
- T/C (dose: 400.0 mg/kg/injection, schedule: Q01DX001 (ip), vehicle: Klucel (hydroxypropylcellulose) (HPC)): 104 % of control

SMILES: Nc1nc(N)c2c(n1)CCC(C(=O)Nc1ccc(Cl)cc1)C2 (configuration not stated)
- T/C [2]: 94 % of control
- T/C [3]: 96 % of control
- T/C [4]: 96 % of control

SMILES: O=Nc1c(O)n(-c2ccccc2)c(=O)[nH]c1=O
- T/C (dose: 50.0 mg/kg/injection, schedule: Q04DX002 (ip), vehicle: suspension in saline): 100 % of control
- T/C (dose: 100.0 mg/kg/injection, schedule: Q04DX002 (ip), vehicle: suspension in saline): 101 % of control
- T/C (dose: 200.0 mg/kg/injection, schedule: Q04DX002 (ip), vehicle: suspension in saline): 101 % of control

SMILES: C=CCN1CCCSC1=S
- T/C [10]: 106 % of control
- T/C [15]: 108 % of control

SMILES: CCn1cnc2c(SC3CCCC3)ncnc21
- T/C (dose: 100.0 mg/kg/injection, schedule: Q01DX009 (ip), vehicle: saline sonified): 105 % of control
- T/C (dose: 200.0 mg/kg/injection, schedule: Q01DX009 (ip), vehicle: saline sonified): 110 % of control

SMILES: CCOC(=O)C(C)P(=O)(OC)OC (configuration not stated)
- T/C [16]: 100 % of control
- T/C [17]: 98 % of control
- T/C (dose: 200.0 mg/kg/injection, schedule: Q01DX005 (ip), vehicle: saline): 103 % of control

SMILES: Cn1c(=O)c2[nH]c(Cc3ccsc3)nc2n(C)c1=O
- T/C [9]: 110 % of control
- T/C [10]: 93 % of control
- T/C [15]: 99 % of control and 95 % of control

SMILES: CCC1C(=O)OCCOCCOCCOCCOC1=O
- T/C (dose: 100.0 mg/kg/injection, schedule: Q04DX003 (ip), vehicle: Klucel (hydroxypropylcellulose) (HPC)): 106 % of control
- T/C (dose: 200.0 mg/kg/injection, schedule: Q04DX003 (ip), vehicle: Klucel (hydroxypropylcellulose) (HPC)): 100 % of control
- T/C (dose: 400.0 mg/kg/injection, schedule: Q04DX003 (ip), vehicle: Klucel (hydroxypropylcellulose) (HPC)): 107 % of control

SMILES: CCOC(=O)N(C)CCc1cc(OC)c(OC)cc1/C=C\c1ccc(OC)c(OC)c1
- T/C (dose: 12.5 mg/kg/injection, schedule: Q01DX001 (ip), vehicle: saline + alcohol): 100 % of control
- T/C (dose: 25.0 mg/kg/injection, schedule: Q01DX001 (ip), vehicle: saline + alcohol): 98 % of control
- T/C (dose: 50.0 mg/kg/injection, schedule: Q01DX001 (ip), vehicle: saline + alcohol): 98 % of control

SMILES: COc1ccc2sc(-c3ccccc3)cc(=O)c2c1CCl
- T/C [5]: 94 % of control
- T/C [6]: 97 % of control
- T/C [7]: 100 % of control

SMILES: CN(C)CCC(=O)/C=C/c1ccc(Cl)c(Cl)c1
- T/C [11]: 92 % of control
- T/C [18]: 101 % of control
- T/C [13]: 113 % of control
- T/C [19]: 116 % of control

SMILES: COc1ccc(OC)c(C(N)=O)c1
- T/C [10]: 102 % of control
- T/C [15]: 102 % of control
- T/C [20]: 100 % of control

SMILES: O=Cc1c2cnc(c1O)CSCc1ccc(cc1)CSC2
- T/C [2]: 104 % of control
- T/C [3]: 110 % of control
- T/C [4]: 113 % of control

SMILES: NCc1ccc(Cl)c(Cl)c1
- T/C [12]: 110 % of control and 116 % of control
- T/C (dose: 12.5 mg/kg/injection, schedule: Q01DX009 (ip), vehicle: saline): 104 % of control and 107 % of control
- T/C (dose: 25.0 mg/kg/injection, schedule: Q01DX009 (ip), vehicle: saline): 100 % of control and 103 % of control
- T/C (dose: 50.0 mg/kg/injection, schedule: Q01DX009 (ip), vehicle: saline): 101 % of control and 104 % of control
- T/C [14]: 103 % of control and 109 % of control

SMILES: C[n+]1nnn(/N=C\c2ccccc2)c1N
- T/C [8]: 100 % of control
- T/C [9]: 97 % of control
- T/C [10]: 104 % of control

SMILES: COc1ccc(Cl)c2c1[nH]c1nc3nc4cc(Cl)ccc4n3nc12
- T/C (dose: 12.5 mg/kg/injection, schedule: Q01DX005 (ip), vehicle: saline with Tween-80): 90 % of control
- T/C [1]: 94 % of control
- T/C [2]: 101 % of control and 105 % of control
- T/C [3]: 105 % of control
- T/C [4]: 111 % of control

SMILES: C=C1C(=O)OC2C1CCC(C)=C1C(=O)C=C(C)C12 (configuration not stated)
- T/C (dose: 50.0 mg/kg/injection, schedule: Q04DX003 (ip), vehicle: saline with Tween-80): 109 % of control
- T/C (dose: 100.0 mg/kg/injection, schedule: Q04DX003 (ip), vehicle: saline with Tween-80): 116 % of control
- T/C (dose: 200.0 mg/kg/injection, schedule: Q04DX003 (ip), vehicle: saline with Tween-80): 119 % of control

SMILES: O=[N+]([O-])c1cc2ccccc2c(O)c1O
- T/C [18]: 95 % of control
- T/C [13]: 104 % of control
- T/C [19]: 118 % of control

SMILES: COC(=O)c1nc(N)nc(C(=O)OC)c1C(=O)c1cccc2ccccc12
- T/C (dose: 60.0 mg/kg/injection, schedule: Q01DX005 (ip), vehicle: Klucel (hydroxypropylcellulose) (HPC)): 99 % of control
- T/C (dose: 120.0 mg/kg/injection, schedule: Q01DX005 (ip), vehicle: Klucel (hydroxypropylcellulose) (HPC)): 100 % of control

SMILES: CN(C)c1ccc(N=Nc2cc3c4ccccc4ccc3c3ccccc23)cc1
- T/C [10]: 109 % of control
- T/C [15]: 114 % of control
- T/C [20]: 117 % of control

SMILES: OCCNCCN=C1CCC(=NCCNCCO)CC1
- T/C [16]: 107 % of control
- T/C [17]: 105 % of control
